Source: patent US6627732B1, “Glutathione derivatives and their dosage forms” (Teijin Limited, priority 1998, dated 2003)
Where a name gives a salt, the structure may show the parent alone. Starred links: 1 amine or outer side, 2 acyl side, 3 side chain; linkers in the order of their positions; H or OH if unused. Non-standard residues stand in square brackets, D forms with d. Residues, ends and D or L forms follow the SMILES beside them. *: point of attachment. γGlu = O=C(O)[C@H](CCC(=O)[*:2])N[*:1]; dPhg = N[C@@H](C(=O)O)c1ccccc1; Bn = c1ccc(C*)cc1

What was measured:
[1] = test system: HL-60 cells; assay: HL-60 cell differentiation induction, NBT reducing activity, DMSO as solvent (Example 21); type: cell-based, human
Excerpt: In a manner similar to that in Example 20, the in vitro activity of the glutathione derivatives of Examples 4, 5, and 8, and Comparative Example 3 were compared.
(1) The differences from Example 20 were: First, since the glutathione derivatives of Examples and Comparative Examples used dimethyl sulfoxide (DMSO) as the solvent because of the solubility of the compounds, the system contained 0.1-0.3 (v/v)% DMSO instead of ethanol. […] This caused slight differences in the sensitivity in the test results of the glutathione derivative of Example 4. Furthermore, in Example 21, the differentiation induction on HL-60 cells into granulocytic cells in the coexistence of 9-cis-RA was only evaluated.

[2] = test system: rabbit liver esterase; assay: Decomposition of glutathione derivatives by rabbit liver esterase (physiological stability); type: in vitro ADME; conditions: BSA/D-PBS pH 7.4, 196-244 μg/ml
Method: (§1) (1) Bovine serum albumin (hereinafter referred to as BSA), Dulbecco's phosphate buffered saline (hereinafter referred to as D-PBS), swine liver esterase, and rabbit liver esterase were purchased from Sigma, 6-week old male SD rats were purchased from Nippon SLC, and 12-week old or older male Japanese white rabbits were purchased from Ichikawaya. On the day of the incubation experiment described below, blood was drawn from the animals in the presence of heparin, and plasma was separated therefrom for use. Human plasma was obtained from normal healthy males after obtaining their consent.
(§2) (2) The glutathione derivatives described in the Examples and Comparative Examples of the present invention were incubated for a fixed time in an enzyme solution having the following composition. Acetonitrile was added to the reaction mixture to inactivate the enzyme thereby to stop the reaction. The concentration of the glutathione derivatives in the deproteinized supernatant was measured by HPLC. For each time point of the esterase enzyme experiment, the mean values from two measurement or more were determined, and for the rats and rabbits the mean values of plasma samples from three individuals were determined. For some of the experiment data, changes with time of percentages relative to initial concentration of the glutathione derivative are shown in FIGS. 2 to 4.
(§3) Swine liver esterase and rabbit liver esterase experiment
(§4) 30 mg-BSA/ml-D-PBS (pH 7.4): 36 to 45 parts
(§5) Swine or rabbit liver esterase/D-PBS: 4-5 parts
(§6) 10 mg-glutathione derivative/ml-ethanol: one part (the final concentration in the reaction mixture is 196-244 μg/ml)

[3] = test system: swine liver esterase; assay: Decomposition of glutathione derivatives by swine liver esterase (physiological stability); type: in vitro ADME; conditions: BSA/D-PBS pH 7.4, 196-244 μg/ml
Method: as §1, §2, §3, §4, §5, §6

[4] = Stability in rabbit plasma; conditions: rabbit, plasma
Method: as §1, §2
Rat, rabbit, and human plasma
Heparinized plasma: 30 to 40 parts
10 mg-glutathione derivative/ml-ethanol: one part (the final concentration in the reaction mixture is 250-323 μg/ml)

[5] = Pharmacokinetics after intravenous administration to rabbits, 2-compartment model (Example 25); type: in vivo, rabbit; conditions: iv auricular vein 2 ml/kg, fat emulsion (Comparative Ex. 1: HPCD/glucose solution)
Excerpt: For the glutathione derivative of the present invention having a long-chain ester having 12 carbons or more and the glutathione derivatives of the conventional technology of Comparative Examples 1 and 2, kinetics in the blood were compared in rabbits that are a species having allow esterase activity in the blood.
(1) Male Japanese white rabbits, 12-week old or older, were purchased from Ichikawaya, and those rabbits that became 15-week old or older and whose body weight reached about 3 kg were used for the experiment. During the period up to the experiment, the animals were allowed free access to the animal feed and drinking water and were kept at a temperature of 24±2° C. and a humidity of 55±5%.
(2) The glutathione derivative having a long-chain ester of 12 carbons or more and the glutathione derivative of Comparative Example 2 were prepared at 20-200 mg/ml in a mixture of ethanol or ethanol:benzyl alcohol, which was mixed with the fat emulsion just prior to use, and was filtered with a 1.2 μm filter to obtain a liquid for intravenous administration. On the other hand, the glutathione derivative of Comparative Example 1 was dissolved in an aqueous solution of 6%-hydroxypropyl-β-cyclodextrin/5%-glucose at 15 mg/ml to obtain an administration liquid.
(3) The administration liquid of the glutathione derivative obtained in (2) at a dose of 2 ml/kg was rapidly infused into the left auricular vein of the rabbits under no anesthesia and under restraint at a rate of 1 ml/min. Each glutathione derivative was given to three or more rabbits. At 5, 10, 15, 30, 60, 120, and 240 minutes after the completion of the administration, 1 ml of the blood was drawn from the right auricular vein in the presence of heparin, which was immediately cooled on ice. Plasma was obtained by centrifuging the blood, 1-2 volume parts of acetonitrile was added to deproteinize the supernatant, which was filtered by a 0.5 μm filter. The supernatant of the filtrate was quantitated by HPLC.

Compound	Ratio of NBT reduction activity-positive cells ([1]; compound 3 × 10^−6 M in DMSO, Solvent control (EtOH - 0.1%))	Ratio of NBT reduction activity-positive cells ([1]; compound 3 × 10^−6 M in DMSO, with 9-cis-RA (5 × 10^−9 M))	Ratio of NBT reduction activity-positive cells ([1]; compound 3 × 10^−7 M in DMSO, Solvent control (EtOH - 0.1%))	Ratio of NBT reduction activity-positive cells ([1]; compound 3 × 10^−7 M in DMSO, with 9-cis-RA (5 × 10^−9 M))	Ratio of NBT reduction activity-positive cells ([1]; compound 3 × 10^−8 M in DMSO, Solvent control (EtOH - 0.1%))	Ratio of NBT reduction activity-positive cells ([1]; compound 3 × 10^−8 M in DMSO, with 9-cis-RA (5 × 10^−9 M))	Ratio of NBT reduction activity-positive cells ([1]; compound 10^−6 M in DMSO, Solvent control (EtOH - 0.1%))	Ratio of NBT reduction activity-positive cells ([1]; compound 10^−6 M in DMSO, with 9-cis-RA (5 × 10^−9 M))	Ratio of NBT reduction activity-positive cells ([1]; compound 10^−7 M in DMSO, Solvent control (EtOH - 0.1%))	Ratio of NBT reduction activity-positive cells ([1]; compound 10^−7 M in DMSO, with 9-cis-RA (5 × 10^−9 M))	Ratio of NBT reduction activity-positive cells ([1]; compound 10^−8 M in DMSO, Solvent control (EtOH - 0.1%))	Ratio of NBT reduction activity-positive cells ([1]; compound 10^−8 M in DMSO, with 9-cis-RA (5 × 10^−9 M))	Decomposition rate constant by rabbit liver esterase [2]	Decomposition rate constant by swine liver esterase [3]	Half life in rabbit plasma [4]	Clearance per body weight [5]	Distribution volume per body weight of the central compartment [5]
N[C@@H](CCC(=O)N[C@@H](CSCc1ccccc1)C(=O)N[C@@H](C(=O)O)c1ccccc1)C(=O)O [Comparative Example 3, Glu(Cys(Bzl)-D-Phg-OH)-OH Hydrochloride, reference compound] (γGlu-Cys(Bn)-[dPhg]-OH)	0.6%	17.1%	0.6%	3.8%	0.5%	2.8%	0.3%	6.1%	0.3%	3.5%	0.7%	3.1%	–	–	–	–	–
CCCCCCCCCCOC(=O)[C@H](NC(=O)[C@H](CSCc1ccccc1)NC(=O)CC[C@H](N)C(=O)OCC)c1ccccc1.Cl [Comparative Example 4, Glu(Cys(Bzl)-D-Phg-O(Decyl))-OEt Hydrochloride, reference compound]	–	–	–	–	–	–	–	–	–	–	–	–	54.2 10^−4/unit/min	88.5 10^−4/unit/min	3.02 h	–	–
CCCCCCCCCCCCCCCCCCCCCCOC(=O)[C@@H](N)CCC(=O)N[C@@H](CSCc1ccccc1)C(=O)N[C@@H](C(=O)OCC)c1ccccc1.Cl [Example 2, Glu(Cys(Bzl)-D-Phg-OEt)-O(Docosyl)hydrochloride]	–	–	–	–	–	–	–	–	–	–	–	–	0.523 10^−4/unit/min	–	–	0.83 mL/min/kg	0.07 L/kg
